By IC50 is commonly meant the concentration that gives 50% inhibition. A word on the Ki: it is the dissociation constant of the complex between target and ligand, obtained from inhibition or displacement.

Each structure is given as a SMILES string. The source made the active and inactive calls.

Consider 6 compounds from ChEMBL document CHEMBL1201862, “PubChem BioAssay data set” (2004).

The target in assay [1] is T1, Sentrin-specific protease 8 (Homo sapiens, UniProt Q96LD8).
T1 sequence (Q96LD8 whole entry): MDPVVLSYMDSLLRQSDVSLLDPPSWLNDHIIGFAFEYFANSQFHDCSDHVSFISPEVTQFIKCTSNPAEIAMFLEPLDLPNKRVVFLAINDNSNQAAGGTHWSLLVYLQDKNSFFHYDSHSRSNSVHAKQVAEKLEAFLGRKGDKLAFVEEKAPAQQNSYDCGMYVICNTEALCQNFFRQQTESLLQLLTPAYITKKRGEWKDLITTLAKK
Put plainly: SENP8 protease inhibitors, SAR follow-up, biochemical, luminescence (AID 504501). The class given is functional.

Assay [2] concerns the target SUMO-activating enzyme (Homo sapiens, UniProt Q9UBT2). Put plainly: inhibitors of in vitro SUMOylation cascade, primary screen, biochemical, HTRF, uHTS (AID 2006). The class given is protein-complex assay. For orientation: Time-resolved FRET reads energy transfer from a long-lived donor to a nearby acceptor.
Assay [3] addresses Dual specificity protein kinase CLK2 (Homo sapiens, UniProt P49760). The class given is functional.
The target in assay [4] is Tyrosine-protein kinase Lck (Homo sapiens, UniProt P06239). The class given is functional.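 Also: lck was assayed as one member of a kinase panel.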
For assay [5], the target named is Activin receptor type-1 (Homo sapiens, UniProt Q04771). Put plainly: Navigating the Kinome. Panel member name: ACVR1. The class given is functional.
Chain of Activin receptor type-1 (Q04771 whole entry): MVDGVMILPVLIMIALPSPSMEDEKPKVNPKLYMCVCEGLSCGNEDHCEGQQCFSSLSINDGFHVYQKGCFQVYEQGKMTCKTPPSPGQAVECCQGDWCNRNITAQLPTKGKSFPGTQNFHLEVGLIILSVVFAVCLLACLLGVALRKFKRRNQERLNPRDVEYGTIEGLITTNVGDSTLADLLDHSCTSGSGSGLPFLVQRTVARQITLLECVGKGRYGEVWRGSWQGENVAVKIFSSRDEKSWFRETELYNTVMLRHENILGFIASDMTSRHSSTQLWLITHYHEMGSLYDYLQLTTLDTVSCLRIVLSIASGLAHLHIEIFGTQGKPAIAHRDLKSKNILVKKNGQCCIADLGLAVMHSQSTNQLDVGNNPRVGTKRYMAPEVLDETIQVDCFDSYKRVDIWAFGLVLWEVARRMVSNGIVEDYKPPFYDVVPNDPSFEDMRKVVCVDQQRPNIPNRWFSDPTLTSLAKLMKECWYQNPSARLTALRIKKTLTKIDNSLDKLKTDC
The target of assay [6] is Tyrosine-protein kinase BTK (Homo sapiens, UniProt Q06187). It is filed as functional.
Chain of Tyrosine-protein kinase BTK (Q06187 whole entry): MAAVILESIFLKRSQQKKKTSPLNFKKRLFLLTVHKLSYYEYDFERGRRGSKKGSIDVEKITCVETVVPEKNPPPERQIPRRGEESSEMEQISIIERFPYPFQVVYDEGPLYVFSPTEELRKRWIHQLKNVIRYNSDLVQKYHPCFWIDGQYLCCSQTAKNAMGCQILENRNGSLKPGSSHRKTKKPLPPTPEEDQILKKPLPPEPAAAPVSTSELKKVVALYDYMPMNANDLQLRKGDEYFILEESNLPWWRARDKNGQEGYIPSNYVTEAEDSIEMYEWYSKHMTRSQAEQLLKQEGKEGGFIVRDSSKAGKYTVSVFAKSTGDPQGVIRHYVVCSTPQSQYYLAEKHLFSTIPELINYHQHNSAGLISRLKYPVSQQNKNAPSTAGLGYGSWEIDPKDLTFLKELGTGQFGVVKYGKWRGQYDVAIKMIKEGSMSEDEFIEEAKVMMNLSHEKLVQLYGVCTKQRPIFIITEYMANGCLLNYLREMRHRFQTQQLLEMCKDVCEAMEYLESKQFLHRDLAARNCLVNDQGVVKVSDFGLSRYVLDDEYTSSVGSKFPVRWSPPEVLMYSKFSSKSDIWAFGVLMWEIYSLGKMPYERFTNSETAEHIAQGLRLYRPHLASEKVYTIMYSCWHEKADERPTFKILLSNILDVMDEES
Assay [7] concerns the target Tyrosine-protein kinase JAK3 (Homo sapiens, UniProt P52333). It is filed as functional.
In assay [8] the target is T2, Serine/threonine-protein kinase TAO1 (Homo sapiens, UniProt Q7L7X3).
T2 sequence (Q7L7X3 whole entry): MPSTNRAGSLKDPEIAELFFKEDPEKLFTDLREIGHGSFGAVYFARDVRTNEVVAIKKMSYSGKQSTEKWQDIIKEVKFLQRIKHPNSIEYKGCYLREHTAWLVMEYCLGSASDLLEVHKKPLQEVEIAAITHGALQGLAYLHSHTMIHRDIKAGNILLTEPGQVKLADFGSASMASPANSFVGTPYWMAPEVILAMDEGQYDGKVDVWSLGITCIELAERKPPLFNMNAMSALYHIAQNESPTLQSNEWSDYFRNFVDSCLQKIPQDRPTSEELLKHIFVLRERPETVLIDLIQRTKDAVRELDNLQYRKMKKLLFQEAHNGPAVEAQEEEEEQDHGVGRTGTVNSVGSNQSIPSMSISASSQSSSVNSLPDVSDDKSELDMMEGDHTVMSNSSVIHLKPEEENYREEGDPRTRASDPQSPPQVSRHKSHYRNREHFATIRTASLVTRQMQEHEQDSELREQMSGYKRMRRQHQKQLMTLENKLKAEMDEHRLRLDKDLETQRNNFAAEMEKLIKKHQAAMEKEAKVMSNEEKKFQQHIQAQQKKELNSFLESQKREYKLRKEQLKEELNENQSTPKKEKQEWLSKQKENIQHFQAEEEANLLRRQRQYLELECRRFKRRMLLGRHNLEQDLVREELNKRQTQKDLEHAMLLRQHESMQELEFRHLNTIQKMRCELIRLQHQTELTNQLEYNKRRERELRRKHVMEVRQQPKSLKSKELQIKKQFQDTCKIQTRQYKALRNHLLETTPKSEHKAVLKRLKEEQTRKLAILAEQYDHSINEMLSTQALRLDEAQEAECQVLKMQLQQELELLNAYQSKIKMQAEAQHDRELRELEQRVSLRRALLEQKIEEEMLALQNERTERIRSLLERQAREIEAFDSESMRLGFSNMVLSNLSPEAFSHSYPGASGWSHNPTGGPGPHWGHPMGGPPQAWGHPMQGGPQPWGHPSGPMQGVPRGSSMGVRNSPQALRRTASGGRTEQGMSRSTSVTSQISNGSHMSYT
The class given is functional.

Assay [9] deals with Activated CDC42 kinase 1 (Homo sapiens, UniProt Q07912). Put plainly: Navigating the Kinome. Panel member name: ACK1. It is filed as functional.
Chain of Activated CDC42 kinase 1 (Q07912 whole entry): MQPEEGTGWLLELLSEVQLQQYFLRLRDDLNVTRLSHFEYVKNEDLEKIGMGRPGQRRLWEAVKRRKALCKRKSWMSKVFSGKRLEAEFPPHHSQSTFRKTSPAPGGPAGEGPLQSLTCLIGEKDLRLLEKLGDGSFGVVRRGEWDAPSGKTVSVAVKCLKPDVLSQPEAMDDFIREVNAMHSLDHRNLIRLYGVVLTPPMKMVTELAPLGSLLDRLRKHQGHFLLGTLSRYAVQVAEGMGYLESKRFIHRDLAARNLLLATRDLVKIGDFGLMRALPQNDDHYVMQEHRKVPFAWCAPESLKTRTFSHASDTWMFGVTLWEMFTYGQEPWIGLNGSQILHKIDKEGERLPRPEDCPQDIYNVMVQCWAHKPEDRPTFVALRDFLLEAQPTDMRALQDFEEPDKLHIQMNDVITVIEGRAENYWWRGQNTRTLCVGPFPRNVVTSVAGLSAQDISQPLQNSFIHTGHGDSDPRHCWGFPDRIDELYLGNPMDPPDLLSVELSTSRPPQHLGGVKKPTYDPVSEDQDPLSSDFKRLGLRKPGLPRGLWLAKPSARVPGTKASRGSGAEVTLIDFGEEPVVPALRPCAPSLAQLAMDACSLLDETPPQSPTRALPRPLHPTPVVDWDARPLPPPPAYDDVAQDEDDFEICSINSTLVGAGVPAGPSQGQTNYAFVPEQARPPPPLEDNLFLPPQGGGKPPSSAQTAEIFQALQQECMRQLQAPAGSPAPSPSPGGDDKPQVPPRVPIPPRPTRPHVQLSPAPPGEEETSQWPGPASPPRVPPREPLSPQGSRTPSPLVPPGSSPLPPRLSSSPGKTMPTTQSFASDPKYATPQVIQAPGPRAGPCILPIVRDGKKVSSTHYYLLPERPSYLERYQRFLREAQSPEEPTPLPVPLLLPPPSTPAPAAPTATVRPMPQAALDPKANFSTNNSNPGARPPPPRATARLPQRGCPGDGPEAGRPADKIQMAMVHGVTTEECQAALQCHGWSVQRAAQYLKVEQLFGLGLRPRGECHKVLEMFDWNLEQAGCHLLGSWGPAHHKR
Assay [10] concerns the target cAMP-dependent protein kinase catalytic subunit PRKX (Homo sapiens, UniProt P51817). It is filed as functional.
Assay [11] addresses Mitogen-activated protein kinase 14 (Homo sapiens, UniProt Q16539). It is filed as functional.
In assay [12] the target is Platelet-derived growth factor receptor beta (Homo sapiens, UniProt P09619). The class given is functional.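 Also: value comes from a kinome panel, with PDGFRB tested as one panel member.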

Chain of Mitogen-activated protein kinase 14 (Q16539 whole entry): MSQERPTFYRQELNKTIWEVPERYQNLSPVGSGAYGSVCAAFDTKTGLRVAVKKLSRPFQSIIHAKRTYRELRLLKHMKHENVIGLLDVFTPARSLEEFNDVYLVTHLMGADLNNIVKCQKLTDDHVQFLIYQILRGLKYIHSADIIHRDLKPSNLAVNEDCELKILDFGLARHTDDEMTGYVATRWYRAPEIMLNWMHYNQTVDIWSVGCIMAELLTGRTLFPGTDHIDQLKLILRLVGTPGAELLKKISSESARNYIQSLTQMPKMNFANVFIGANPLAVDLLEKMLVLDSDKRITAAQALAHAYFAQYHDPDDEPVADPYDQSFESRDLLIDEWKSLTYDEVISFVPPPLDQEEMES
Chain of Dual specificity protein kinase CLK2 (P49760 whole entry): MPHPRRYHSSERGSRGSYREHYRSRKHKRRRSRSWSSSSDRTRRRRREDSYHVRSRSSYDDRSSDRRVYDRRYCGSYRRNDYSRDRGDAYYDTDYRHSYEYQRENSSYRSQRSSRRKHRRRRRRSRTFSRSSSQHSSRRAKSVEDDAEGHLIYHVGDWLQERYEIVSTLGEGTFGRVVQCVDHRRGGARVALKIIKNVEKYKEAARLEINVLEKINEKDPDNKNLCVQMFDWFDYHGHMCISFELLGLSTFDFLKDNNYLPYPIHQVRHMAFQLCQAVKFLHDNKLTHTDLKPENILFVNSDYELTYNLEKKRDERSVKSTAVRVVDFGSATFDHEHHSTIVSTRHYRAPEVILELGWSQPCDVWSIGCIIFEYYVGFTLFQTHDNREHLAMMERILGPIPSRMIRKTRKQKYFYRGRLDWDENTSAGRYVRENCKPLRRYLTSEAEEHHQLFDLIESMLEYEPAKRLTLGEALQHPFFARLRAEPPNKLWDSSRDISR
Chain of Tyrosine-protein kinase JAK3 (P52333 whole entry): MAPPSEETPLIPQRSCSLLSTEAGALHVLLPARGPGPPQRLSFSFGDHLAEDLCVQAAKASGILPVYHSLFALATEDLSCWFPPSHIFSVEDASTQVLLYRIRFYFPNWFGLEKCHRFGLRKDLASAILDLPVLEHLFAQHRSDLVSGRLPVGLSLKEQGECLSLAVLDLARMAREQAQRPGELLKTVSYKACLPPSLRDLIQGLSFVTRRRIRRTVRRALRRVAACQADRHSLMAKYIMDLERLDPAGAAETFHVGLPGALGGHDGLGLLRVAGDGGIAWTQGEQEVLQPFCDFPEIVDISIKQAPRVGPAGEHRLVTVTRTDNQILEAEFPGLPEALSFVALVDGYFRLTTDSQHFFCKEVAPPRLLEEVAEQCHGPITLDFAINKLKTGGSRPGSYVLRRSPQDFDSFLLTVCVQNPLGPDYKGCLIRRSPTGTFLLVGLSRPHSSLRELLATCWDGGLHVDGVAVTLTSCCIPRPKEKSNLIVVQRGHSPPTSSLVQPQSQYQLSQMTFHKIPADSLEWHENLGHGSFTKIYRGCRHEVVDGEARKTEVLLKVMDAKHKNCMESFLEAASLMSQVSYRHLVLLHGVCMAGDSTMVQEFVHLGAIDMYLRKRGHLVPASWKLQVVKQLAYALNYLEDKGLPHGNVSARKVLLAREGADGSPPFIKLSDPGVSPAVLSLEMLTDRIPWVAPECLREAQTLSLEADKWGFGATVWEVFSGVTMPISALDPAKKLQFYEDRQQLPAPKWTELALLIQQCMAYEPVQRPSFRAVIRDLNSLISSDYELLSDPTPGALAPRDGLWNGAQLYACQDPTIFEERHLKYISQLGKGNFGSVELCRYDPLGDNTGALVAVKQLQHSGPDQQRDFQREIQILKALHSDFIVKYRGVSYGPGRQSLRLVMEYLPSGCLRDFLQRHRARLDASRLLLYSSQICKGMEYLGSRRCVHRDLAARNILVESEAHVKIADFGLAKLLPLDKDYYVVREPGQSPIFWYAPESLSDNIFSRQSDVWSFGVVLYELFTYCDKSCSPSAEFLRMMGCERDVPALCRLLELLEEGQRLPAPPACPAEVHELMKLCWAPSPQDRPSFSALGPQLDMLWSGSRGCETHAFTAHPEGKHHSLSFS
Chain of cAMP-dependent protein kinase catalytic subunit PRKX (P51817 whole entry): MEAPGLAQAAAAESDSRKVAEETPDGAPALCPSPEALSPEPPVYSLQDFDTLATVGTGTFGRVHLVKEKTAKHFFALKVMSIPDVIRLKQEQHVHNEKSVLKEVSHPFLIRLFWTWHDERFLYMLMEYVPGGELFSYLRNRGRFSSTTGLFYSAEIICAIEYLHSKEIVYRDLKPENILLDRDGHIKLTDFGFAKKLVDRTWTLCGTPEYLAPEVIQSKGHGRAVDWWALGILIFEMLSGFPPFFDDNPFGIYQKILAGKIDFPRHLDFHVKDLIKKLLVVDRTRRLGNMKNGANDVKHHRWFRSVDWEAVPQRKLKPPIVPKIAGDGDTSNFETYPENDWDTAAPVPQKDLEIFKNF

Turning to `COc1cc2cc(NC(C)=O)cc(NCc3ccccc3)c2cc1OC`, the IC50 in assay [1] was > 99000 nM (inactive).

As to `Oc1nc(Nc2ccc(F)cc2)cc2ccccc12`, in assay [2], the IC50 is 3380 nM (active).

For `CN(C)c1cc(N/N=C\c2ccccc2)nc(N(C)C)n1`, the IC50 was 15500 nM (active) in assay [2] and 31700 nM (active) in assay [1].

Regarding `O=C1Nc2cc(-c3ccc(O)cc3)ccc2C1=Cc1ccc[nH]1`, the Ki is > 3980 nM (inactive) in assay [3]; 1000 nM (active) in assay [4]; 3160 nM (active) in assay [5]; > 6310 nM (inactive) in [6]; 20 nM (active) in assay [7]; 398 nM (active) in assay [8]. Further, the Ki in [9] was > 3980 nM (inactive); in assay [10], 2000 nM (active); in assay [11], 2510 nM (active).

For the compound `NC(COc1cncc(-c2ccc3c(c2)C(=Cc2ccc[nH]2)C(=O)N3)c1)Cc1ccccc1` (centres undefined), the Ki was 0.794 nM (active) in [3]; 251 nM (active) in [4]; 794 nM (active) in assay [5]; 3980 nM (active) in assay [6]; 20 nM (active) in assay [7]; 251 nM (active) in assay [8]. For the same compound, the Ki in assay [9] was 1580 nM (active); in [12], 3.16 nM (active); in assay [10], 39.8 nM (active); in [11], 631 nM (active).

Regarding `O=C1Cc2cc(-c3ccccc3)cnc2N1`, the Ki in assay [12] is 50100 nM (active).
